# According to PMC6338644 (The FASEB Journal, 2018):
# Where a name gives a salt, the structure may show the parent alone.
# How the values were obtained:
# [1] = target: T1, SHIP2 immunoprecipitated from the lysates of podocytes (Homo sapiens, UniProt O15357); assay: Activity of SHIP2 immunoprecipitated from podocytes; type: cell-based; settings: 20–24 h
# T1 construct: endogenous in cells; host or cells: immortalized human podocytes
# T1 sequence (O15357 1-1258): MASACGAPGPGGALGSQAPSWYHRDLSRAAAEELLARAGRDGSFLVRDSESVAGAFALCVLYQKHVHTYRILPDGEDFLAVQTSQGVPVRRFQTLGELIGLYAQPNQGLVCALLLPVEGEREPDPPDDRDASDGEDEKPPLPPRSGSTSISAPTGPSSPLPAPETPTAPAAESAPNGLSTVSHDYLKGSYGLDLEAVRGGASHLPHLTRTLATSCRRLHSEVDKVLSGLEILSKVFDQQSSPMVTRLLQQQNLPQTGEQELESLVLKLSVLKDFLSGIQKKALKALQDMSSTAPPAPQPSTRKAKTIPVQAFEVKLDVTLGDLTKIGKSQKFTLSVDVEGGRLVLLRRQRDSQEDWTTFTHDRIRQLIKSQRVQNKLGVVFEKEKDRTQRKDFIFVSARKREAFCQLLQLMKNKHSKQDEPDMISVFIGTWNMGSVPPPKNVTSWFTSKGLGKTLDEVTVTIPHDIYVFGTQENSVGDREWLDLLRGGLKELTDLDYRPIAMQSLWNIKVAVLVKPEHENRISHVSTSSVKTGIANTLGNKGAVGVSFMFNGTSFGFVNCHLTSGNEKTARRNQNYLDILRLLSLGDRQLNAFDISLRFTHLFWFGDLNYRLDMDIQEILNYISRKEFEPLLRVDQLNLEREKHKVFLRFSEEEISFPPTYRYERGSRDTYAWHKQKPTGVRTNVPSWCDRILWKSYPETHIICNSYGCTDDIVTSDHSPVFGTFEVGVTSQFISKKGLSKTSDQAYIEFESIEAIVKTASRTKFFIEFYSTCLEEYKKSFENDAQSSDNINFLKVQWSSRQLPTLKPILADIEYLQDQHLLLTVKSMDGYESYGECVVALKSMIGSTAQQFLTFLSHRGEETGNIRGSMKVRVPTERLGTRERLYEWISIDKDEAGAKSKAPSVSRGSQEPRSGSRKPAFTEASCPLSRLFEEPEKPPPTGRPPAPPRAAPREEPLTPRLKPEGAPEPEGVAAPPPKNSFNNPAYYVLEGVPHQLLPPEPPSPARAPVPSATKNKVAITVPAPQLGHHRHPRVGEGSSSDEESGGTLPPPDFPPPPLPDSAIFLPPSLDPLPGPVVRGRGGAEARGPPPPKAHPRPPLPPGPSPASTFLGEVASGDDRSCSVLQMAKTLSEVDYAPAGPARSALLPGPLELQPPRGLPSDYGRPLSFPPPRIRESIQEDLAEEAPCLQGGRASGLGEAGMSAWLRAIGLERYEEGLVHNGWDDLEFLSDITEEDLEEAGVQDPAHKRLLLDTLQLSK
# Experimental: Immortalized human podocytes were maintained as previously described ([10]). […] Podocytes were lysed as previously described ([21]).
# Recombinant His-tagged human SHIP2 and SHIP1 phosphatase domains were produced as previously described ([17]). […] Immunocomplexes were bound to protein G-Sepharose beads at +4°C for 2 h and washed 3 times with malachite green phosphate assay buffer {10 mM 4-(2-hydroxyethyl)-1-piperazineethanesulfonic acid (HEPES), pH 7.25, 6 mM MgCl2, 0.1% 3-[(3-cholamidopropyl)dimethylammonio]-1-propanesulfonate (CHAPS), 250 mM sucrose, and 0.25 mM EDTA}.
# The catalytic activities of the recombinant SHIP2 and SHIP1 phosphatase domains were determined by malachite green phosphate assay at the High Throughput Biomedicine Unit (University of Helsinki) using D-myo-PI(3,4,5)P3 (Echelon Biosciences, Salt Lake City, UT, USA). Different volumes, resulting in desired final concentrations of inhibitors, were transferred to the wells of 384-well plates by using the Echo550 acoustic dispenser (Labcyte, San Jose, CA, USA). Recombinant protein (100 ng) in reaction buffer {10 mM HEPES, pH 7.25, 6 mM MgCl2, 0.1% CHAPS, 250 mM sucrose, and 0.25 mM EDTA} was placed in each well (7.5 µl), and the plates were preincubated at room temperature for 15 min. The phosphatase reaction was started by adding PI(3,4,5)P3 diluted in the reaction buffer (7.5 µl) to each well to reach a final concentration of 100 µM PI(3,4,5)P3 in the 15 µl reaction volume. […] Absorbance was measured at 620 nm using a Pherastar FS plate reader (BMG Labtech, Offenburg, Germany). […] The catalytic activity of SHIP2 immunoprecipitated from cell and tissue lysates was determined as in Saurus et al. ([22]), omitting SHIP2 inhibitors in lysis buffer, immunoprecipitation reaction, wash, and assay buffers. […]
# Hydrogen bond is shown in green. […] The catalytic activity of SHIP2 was measured by manual malachite green phosphate assay.
# db/db mice = settings: cited from earlier work
# [2] = tested on: GLUT1 and GLUT4 protein expression; assay: Immunoblot of GLUT1 and GLUT4 expression in myotubes and podocytes; type: cell-based, rat, human; settings: 2 mM, 20–24 h
# PCK1 and G6Pase mRNA = assay: Quantitative RT-PCR of gluconeogenesis genes in db/db mice; type: in vivo, mouse; settings: 250 mg/kg per day, 12 d
# Source text: At the end of the experiment, mice were euthanized. […]
# The expression levels of the rate-
# analyzed by quantitative RT-PCR (n=6).
# internal controls for liver and kidney, respectively. The bars show the mean expres sion in arbitrary
# [3] = target: SHIP2 in tissues of db/db mice (Mus musculus, UniProt Q6P549); settings: 250 mg/kg per day, 12 d
# Chain of SHIP2 in tissues of db/db mice (Q6P549 whole entry): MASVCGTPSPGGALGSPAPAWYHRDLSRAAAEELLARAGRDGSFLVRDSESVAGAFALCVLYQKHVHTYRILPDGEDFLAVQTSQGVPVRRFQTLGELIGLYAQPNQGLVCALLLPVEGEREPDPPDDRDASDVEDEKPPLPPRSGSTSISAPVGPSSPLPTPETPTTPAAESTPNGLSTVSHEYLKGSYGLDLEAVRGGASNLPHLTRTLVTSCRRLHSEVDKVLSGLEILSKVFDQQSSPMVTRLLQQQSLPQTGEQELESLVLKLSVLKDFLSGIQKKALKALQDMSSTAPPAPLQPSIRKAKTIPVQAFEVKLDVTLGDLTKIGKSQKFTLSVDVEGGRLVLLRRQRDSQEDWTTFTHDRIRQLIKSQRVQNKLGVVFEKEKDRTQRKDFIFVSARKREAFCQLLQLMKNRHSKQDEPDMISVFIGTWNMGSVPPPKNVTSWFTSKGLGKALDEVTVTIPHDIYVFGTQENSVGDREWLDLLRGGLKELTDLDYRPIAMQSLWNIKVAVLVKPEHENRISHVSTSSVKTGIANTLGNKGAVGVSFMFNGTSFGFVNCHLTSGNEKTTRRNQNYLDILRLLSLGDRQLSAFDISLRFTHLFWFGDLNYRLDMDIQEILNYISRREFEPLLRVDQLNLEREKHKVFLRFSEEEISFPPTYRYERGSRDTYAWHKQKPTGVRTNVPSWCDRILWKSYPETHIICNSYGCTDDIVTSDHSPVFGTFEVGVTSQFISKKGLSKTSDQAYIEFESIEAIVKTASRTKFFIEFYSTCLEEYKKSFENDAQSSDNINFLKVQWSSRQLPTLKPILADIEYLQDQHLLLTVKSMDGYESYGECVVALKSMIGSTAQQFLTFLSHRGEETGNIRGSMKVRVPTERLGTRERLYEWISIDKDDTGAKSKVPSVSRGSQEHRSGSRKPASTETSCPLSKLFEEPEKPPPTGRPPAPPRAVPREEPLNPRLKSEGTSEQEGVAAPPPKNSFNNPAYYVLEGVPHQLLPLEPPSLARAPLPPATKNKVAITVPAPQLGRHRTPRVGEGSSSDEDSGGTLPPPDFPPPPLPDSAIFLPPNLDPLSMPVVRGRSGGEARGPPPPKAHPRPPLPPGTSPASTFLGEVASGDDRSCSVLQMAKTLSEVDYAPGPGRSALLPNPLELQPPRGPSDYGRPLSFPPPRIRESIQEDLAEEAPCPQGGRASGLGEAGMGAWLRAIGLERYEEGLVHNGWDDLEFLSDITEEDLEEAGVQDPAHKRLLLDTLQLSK
reduction of SHIP2 activity in podocytes ([1]; 1 mM) [%],SHIP2 activity in the liver [3],decrease in enzymatic activity of SHIP2 in kidney [3] [%],Compound,reduction of SHIP2 activity in podocytes ([1]; 20 µM),PCK1 expression in db/db mice (db/db mice),blood glucose in db/db mice (db/db mice; short-term treatment),insulin sensitivity in db/db mice (db/db mice; short-term treatment),effect on GLUT1 and GLUT4 protein expression levels [2],G6Pase mRNA level in kidney (PCK1 and G6Pase mRNA),G6Pase mRNA level in liver (PCK1 and G6Pase mRNA),PCK1 mRNA level in kidney (PCK1 and G6Pase mRNA),PCK1 mRNA level in liver (PCK1 and G6Pase mRNA)
–,–,–,C[C@H](NC(=O)c1sccc1OCc1ccc(Cl)cc1)c1ccccc1 [AS1949490],20–30%,reduce,reduced,improved,–,–,–,–,–
14,not reduced,40,"CN(C)C(=N)N=C(N)N [Metformin, 1,1-Dimethylbiguanide hydrochloride]",20–30%,–,–,–,no effect,increased,decreased,increased,decreased
